The source of these data is patent US20220177476A1, “Crystal Forms of (S)-4-(8-amino-3-(1-(but-2-ynoyl)-pyrrolidin-2-yl)imidazo[1,5-a]pyrazin-1-yl)-n-(pyridin-2-yl)benzamide” (Acerta Pharma B.V., priority 2015, published 2022).

Data set [1] can be described thus: Aqueous solubility of salts after three hours equilibration without pH adjustment. The following applies: water. It is filed as physicochemical. As to the method: Characterization of fumarate salt, maleate salt, phosphate salt and L-tartrate salt was conducted using ^1H NMR spectroscopy, TG-FTIR, DSC, dynamic vapor sorption, optical microscopy, high-performance liquid chromatography (HPLC) purity, laser diffraction, approximate bulk and tapped density, and aqueous solubility analytical techniques.

Data set [2] in a line: logP by potentiometric (pH-metric) technique, octanol/water. The following applies: 25° C., 0.15 M KCl. It is filed as physicochemical. Here is the method: The logP of Formula (1) free base was determined using the potentiometric (pH-metric) technique. The sample was titrated in various ratios of octanol/water from pH 1.9-12.1 at concentrations of 1.1-0.5 mM at 25° C. in an ionic environment of 0.15 M KCl. The potentiometric data collected were used to calculate the logP of the neutral (2.03±0.01) and the cationic (−0.31±0.06) species.

Data set [3] is described as follows: Aqueous solubility of Formula (1) free base as a function of pH. It is filed as physicochemical. The source says: The aqueous solubility of Formula (1) free base was examined as a function of pH.
Data set [4] is described as follows: pKa by ultraviolet (UV) spectrometric titration. Format: physicochemical. The conditions noted are these: for pKa: aqueous solution. Here is the method: The pKa values for Formula (1) free base were determined and used to create the speciation plot shown in FIG. 47 to illustrate the species present as the Formula (1) passes through the gastrointestinal tract. The sample pKa values were determined using an ultraviolet (UV) spectrometric technique. The sample was initially titrated in a fast-UV triple titration between pH 2-12 at concentrations of 31-19 μM, under aqueous conditions. Three pKa values, with average values of ˜3.6, ˜5.8 and ˜12.0, were determined. The sample was subsequently titrated in six titrations, under aqueous conditions over a total range of pH 1.5-12.5 at concentrations of 30-18 μM.

A short description of data set [5]: Bulk and tapped density of salts. Format: physicochemical. The conditions noted are these: 10 gram sample.
Data set [6] is described as follows: Dynamic vapor sorption (DVS). Format: physicochemical. Here is the method: A gravimetric vapor sorption study was run using a standard procedure. Samples were run using a dynamic vapor sorption (DVS) analyzer. Sample sizes were approximately 10 mg. A moisture adsorption-desorption isotherm was performed as outlined below.
The conditions of data set [7]: for Solubility (mg/mL) after 24 hours equilibration: pure water at 25° C., pH 3.6-4.1.
Data set [8] can be described thus: Water content by Karl Fischer titration. It is filed as physicochemical.
Data set [9] in a line: Plasma exposure after single oral administration in fasted beagle dogs. The conditions noted are these: nine fasted beagle dogs, single oral administration of 6 mg/kg, oral capsule. It is filed as in vivo. As to the method:
The plasma exposure of Forms I and II of the free base of Formula (1) were compared in nine fasted beagle dogs after a single oral administration of 6 mg/kg of either form using batches with a similar particle size distribution. The experiment was performed in 5 weekly phases, with the Form II phase last. […] There was a good in vitro in vivo correlation for the dissolution rates of Form 1 and Form II, and the performance of each form of Formula (1) when delivered by oral capsule to dogs.

Data set [10] can be described thus: Relative stability of solid forms (water activity, suspension equilibration, storage). Format: physicochemical. The conditions noted are these: room temperature. The source says:
Critical water activity is a measure of the relative thermodynamic stability of Form I in comparison to the trihydrate Form II. […] Suspension equilibration experiments in ethanol-water mixtures, each having a different water activity, affirmed this conclusion. Water activities included in the experiments were maintained at: about 0.35 (ethanol-water ratio of 95:5, PP502-P32), about 0.53 (ethanol-water ratio of 9:1, PP502-P33) and about 0.77 (ethanol-water ratio of 7:3, PP502-P34).
Because the DVS results of Form II indicate reversible moisture sorption-desorption behavior (see above), tests were performed to confirm that storage of the dehydrated Form II sample (i.e., Form IV) at about 60% RH would again lead to the trihydrate form (Form II). […]

Data set [11] in a line: Intrinsic dissolution rate (paddle over stationary disc). It is filed as physicochemical. As to the method: The intrinsic dissolution rate (IDR) was measured for Forms I and II of the free base of Formula (1). IDR was measured using a paddle over stationary disc equipped dissolution apparatus with concentration determined using liquid chromatographic analysis against a standard. […] Form I has an IDR of 6.8 mg/cm^2/min in simulated gastric fluid (SGF) (pH 1.2) and an IDR of 0.44 mg/cm^2/min in pH 2.5 HCl/NaCl buffer. Form II has an IDR of 5.4 mg/cm^2/min in SGF and an IDR of 0.35 mg/cm^2/min in pH 2.5 HCl/NaCl buffer.

A short description of data set [12]: Aqueous solubility after equilibrating at 25° C. for three days (HPLC). It is filed as physicochemical. The conditions noted are these: water, equilibrated at 25° C. for three days, HPLC of filtered solution. As to the method:
Finally, Form II was tested with respect to solubilities in various water-solvent mixtures and non-aqueous solvents. […] High-performance liquid chromatography (HPLC) was used to determine the concentration of Form II in the filtered solution at approximately 14 μg/mL, which translates into a critical water activity (aw) of about 0.59.

The mark [13] stands for this setting: six titrations, pH 1.5-12.5, 30-18 μM, aqueous.

A word on the solubility: it is the concentration that dissolves in the medium under given conditions. Broadly, the logP is the decadic logarithm of the partition coefficient of the neutral form, usually between octanol and water. One may read the pKa as the negative logarithm of the acid dissociation constant.

Where two headings read alike, the source gives them in different places.

Turning to `CC#CC(=O)N1CCC[C@H]1c1nc(-c2ccc(C(=O)Nc3ccccn3)cc2)c2c(N)nccn12` [Formula (1), (S)-4-(8-amino-3-(1-(but-2-ynoyl)pyrrolidin-2-yl)imidazo[1,5-α]pyrazin-1-yl)-N-(pyridin-2-yl)benzamide], the solubility at 3 h in [1] (thermodynamic from solid) was under 1000 µg/mL. Moreover, the “logP of the neutral species” value in data set [2] is reported as 2.03±0.01. In addition, the lipophilicity (logP) in data set [2] (read-out: logP of the cationic species) was -0.31 ± 0.06. In addition, the solubility is at least 150000 µg/mL in data set [3] (aqueous HCl solution, pH 1, simulated gastric fluid, thermodynamic from solid, HCl solution having a pH of about 1, read-out: solubility in HCl solution); 690 µg/mL in [3] (aqueous buffer solution, pH 5, aqueous buffer, thermodynamic from solid, effective pH at the end of the test 5.0, read-out: Solubility); 49 µg/mL in data set [3] (aqueous buffer solution, pH 7.3, aqueous buffer, thermodynamic from solid, effective pH at the end of the test 7.3, read-out: Solubility); 51 µg/mL in data set [3] (aqueous buffer solution, pH 8.9, aqueous buffer, thermodynamic from solid, effective pH at the end of the test 8.9, read-out: Solubility); about 50 µg/mL in data set [3] (aqueous buffer solutions, aqueous buffer, thermodynamic from solid, pH 6.7 and greater, read-out: aqueous solubility, constant level); 56 µg/mL in [3] (effective pH at the end of the test 6.7). In [3] (pH 6.7 and greater), the “aqueous solubility, constant level” value was “about 50 μg/mL”. In addition, the pKa was about 5.7 in data set [4] (free base, Table 9, read-out: pKa); 12.12 ± 0.03 in data set [4] (pH 1.5, six titrations, pH 1.5-12.5, 30-18 μM, aqueous, read-out: pKa, average value (third)); about 3.6 in data set [4] (pH 2, fast-UV triple titration, pH 2-12, 31-19 μM, aqueous, read-out: pKa, average value (first)); about 5.8 in [4] (pH 2, fast-UV triple titration, pH 2-12, 31-19 μM, aqueous, read-out: pKa, average value (second)); about 12 in data set [4] (pH 2, fast-UV triple titration, pH 2-12, 31-19 μM, aqueous, read-out: pKa, average value (third)). For the same compound, in [4] (setting [13]), the “pKa, average value (first)” value came to 3.54±0.01. The “pKa, average value (second)” value in data set [4] (setting [13]) came out at 5.77±0.01.

`CC#CC(=O)N1CCC[C@H]1c1nc(-c2ccc(C(=O)Nc3ccccn3)cc2)c2c(N)nccn12.O=P(O)(O)O` [Phosphate, (S)-4-(8-amino-3-(1-(but-2-ynoyl)pyrrolidin-2-yl)imidazo[1,5-α]pyrazin-1-yl)-N-(pyridin-2-yl)benzamide phosphate]: in data set [1], the “Solubility (3 hours)” value was 9800 µg/mL. Further, in data set [5], the “Bulk density” value came to 0.33 g/mL and the “Tapped density” value is reported as 0.48 g/mL. For the same compound, in data set [6], the “Behavior in DVS: Δm (20-80% RH)” value was ~0.7% (20-80% RH). Further, in [6] (DVS), the “maximum water content (saturation) at about 95% RH” value is on record as “approximately 6.6%”. In addition, the “Solubility (mg/mL) after 24 hours equilibration” value (“Solubility (mg/mL)” below) in [7] came out at 15.0 mg/mL.

In the case of `CC#CC(=O)N1CCC[C@H]1c1nc(-c2ccc(C(=O)Nc3ccccn3)cc2)c2c(N)nccn12.O=C(O)/C=C/C(=O)O` [Fumarate, (S)-4-(8-amino-3-(1-(but-2-ynoyl)pyrrolidin-2-yl)imidazo[1,5-α]pyrazin-1-yl)-N-(pyridin-2-yl)benzamide fumarate], the “Solubility (3 hours)” value in data set [1] is about 1800 µg/mL. In data set [5], the “Bulk density” value was 0.45 g/mL and the “Tapped density” value came to 0.57 g/mL. The “Behavior in DVS: Δm (20-80% RH)” value in data set [6] is listed as ~0.8% (20-80% RH). Moreover, in data set [6] (DVS), the “maximum water content (saturation) at about 95% RH” value is recorded as “approximately 6%”; the “water content change between 20% and 80% RH” value is reported as “about 0.8%”. Moreover, the “Solubility (mg/mL)” value in data set [7] turned out to be 2.1 mg/mL.

Take `CC#CC(=O)N1CCC[C@H]1c1nc(-c2ccc(C(=O)Nc3ccccn3)cc2)c2c(N)nccn12.O=S(=O)(O)O` [sulfate salt, (S)-4-(8-amino-3-(1-(but-2-ynoyl)pyrrolidin-2-yl)imidazo[1,5-α]pyrazin-1-yl)-N-(pyridin-2-yl)benzamide sulfate]: the “water content (% found, experimental)” value in [8] worked out at 10.6%.

Turning to `CC#CC(=O)N1CCC[C@H]1c1nc(-c2ccc(C(=O)Nc3ccccn3)cc2)c2c(N)nccn12.O=C(O)C(O)C(O)C(=O)O` [L-Tartrate, (S)-4-(8-amino-3-(1-(but-2-ynoyl)pyrrolidin-2-yl)imidazo[1,5-α]pyrazin-1-yl)-N-(pyridin-2-yl)benzamide L-tartrate], in [5], the “Bulk density” value is 0.29 g/mL and the “Tapped density” value was 0.50 g/mL. Besides, in data set [6], the “Behavior in DVS: Δm (20-80% RH)” value is ~0.7% (20-80% RH). In addition, in data set [6] (DVS), the “maximum water content (saturation) at about 95% RH” value is “approximately 5.4%”; the “water content at 50% RH” value is on record as “about 4.8%”; the “water content change between 20% and 80% RH” value was “about 0.7%”.

For `CC#CC(=O)N1CCC[C@H]1c1nc(-c2ccc(C(=O)Nc3ccccn3)cc2)c2c(N)nccn12.O=C(O)/C=C\C(=O)O` [Maleate, (S)-4-(8-amino-3-(1-(but-2-ynoyl)pyrrolidin-2-yl)imidazo[1,5-α]pyrazin-1-yl)-N-(pyridin-2-yl)benzamide maleate], the “Solubility (3 hours)” value in data set [1] was determined as 2200 µg/mL. Besides, the “Bulk density” value in data set [5] worked out at 0.35 g/mL. Besides, the “Tapped density” value in data set [5] came out at 0.45 g/mL. Moreover, the “Behavior in DVS: Δm (20-80% RH)” value in data set [6] was “fumarate, Δm~0.7%”. Moreover, the “maximum water content (saturation) at about 95% RH” value in data set [6] (DVS) is “approximately 5.8%”. Further, the “water content change between 20% and 80% RH” value in data set [6] (DVS) is listed as “about 0.5%”. Moreover, the “solubility” value in data set [7] (0.1 N HCl, Sigma #71763, pH after 24 hours 1.8) was 37000 µg/mL; in data set [7] (borate buffer (sample pH9), pH after 24 hours 4.7), 1200 µg/mL; in [7] (buffer pH 5, pH after 24 hours 4.8), 4300 µg/mL; in data set [7] (citrate buffer pH 3, pH after 24 hours 3.2), 8000 µg/mL; in data set [7] (phosphate buffer pH 7, KH2PO4 (sample pH6.8), pH after 24 hours 4.8) it was 1200 µg/mL; in data set [7] (phosphate buffer pH 7, KH2PO4 (sample pH7.4), pH after 24 hours 5.0) it was 800 µg/mL. The “Solubility (mg/mL)” value in data set [7] is reported as 2.3 mg/mL.

For `CC#CC(=O)N1CCC[C@H]1c1nc(-c2ccc(C(=O)Nc3ccccn3)cc2)c2c(N)nccn12` [Form II, (S)-4-(8-amino-3-(1-(but-2-ynoyl)pyrrolidin-2-yl)imidazo[1,5-α]pyrazin-1-yl)-N-(pyridin-2-yl)benzamide], in [9], the “Cmax (maximum concentration)” value is given as “lower Cmax (maximum concentration) than Form I in all dogs” and the “area under the plasma drug concentration-time curve (AUC)” value is “lower AUC than Form I in all dogs”. In addition, in data set [6] (DVS), the “maximum water content (saturation) at about 95% RH” value is listed as “about 10.4%”; the “total weight gain observed between 0% RH and 80% RH” value is given as “about 10%”. For the same compound, the “hygroscopicity according to the European Pharmacopoeia (EP) classification” value in data set [6] (DVS, weight increase at 80% RH) was “hygroscopic (hygroscopic: ≥2% and <15%)”. In data set [10] (Form I versus trihydrate Form II, from aqueous solubilities), the “critical water activity (aw)” value is given as “about 0.59”. Besides, in data set [10] (depending on water activity), the “relative thermodynamic stability of Form I and Form II” value is “above this value Form II is more stable”. Besides, the “intrinsic dissolution rate (IDR)” value in data set [11] (pH 2.5 HCl/NaCl buffer) amounted to 0.35 mg/cm^2/min. Further, in [11] (simulated gastric fluid (SGF) (pH 1.2)), the “intrinsic dissolution rate (IDR)” value is on record as 5.4 mg/cm^2/min. In addition, the aqueous solubility result in [12] was “approximately 14 μg/mL”.
